Laboratory results from PubChem BioAssay (NCI).
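96-well plates; 48 h exposure; 5 concentrations. Endpoints by linear interpolation between flanking doses. Not reached: highest tested concentration assigned. GI50 marks 50% less growth. TGI is the concentration that stops growth completely.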

What was measured:
Assay in all cases: NCI anticancer screen, dose series, 48 h
786-0 renal = tested on: 786-0 renal
A498 renal = tested on: A498 renal
A549 NSCLC = tested on: A549 NSCLC
ACHN renal = tested on: ACHN renal
BT-549 breast = tested on: BT-549 breast
CAKI-1 renal = tested on: CAKI-1 renal
CCRF-CEM leukemia = tested on: CCRF-CEM leukemia
COLO 205 colon = tested on: COLO 205 colon
DU-145 prostate = tested on: DU-145 prostate
EKVX NSCLC = tested on: EKVX NSCLC
HCC-2998 colon = tested on: HCC-2998 colon
HCT-116 colon = tested on: HCT-116 colon
HCT-15 colon = tested on: HCT-15 colon
HOP-62 NSCLC = tested on: HOP-62 NSCLC
HOP-92 NSCLC = tested on: HOP-92 NSCLC
HS 578T breast = tested on: HS 578T breast
HT29 colon = tested on: HT29 colon
IGROV1 ovarian = tested on: IGROV1 ovarian
K-562 leukemia = tested on: K-562 leukemia
KM12 colon = tested on: KM12 colon
LOX IMVI melanoma = tested on: LOX IMVI melanoma
M14 melanoma = tested on: M14 melanoma
MALME-3M melanoma = tested on: MALME-3M melanoma
MCF7 breast = tested on: MCF7 breast
MDA-MB-231 breast = tested on: MDA-MB-231 breast
MDA-MB-435 = tested on: MDA-MB-435
MOLT-4 leukemia = tested on: MOLT-4 leukemia
NCI-H226 lung = tested on: NCI-H226 lung
NCI-H23 lung = tested on: NCI-H23 lung
NCI-H460 lung = tested on: NCI-H460 lung
NCI-H522 lung = tested on: NCI-H522 lung
NCI/ADR-RES ovarian = tested on: NCI/ADR-RES ovarian
OVCAR-3 ovarian = tested on: OVCAR-3 ovarian
OVCAR-4 ovarian = tested on: OVCAR-4 ovarian
OVCAR-5 ovarian = tested on: OVCAR-5 ovarian
OVCAR-8 ovarian = tested on: OVCAR-8 ovarian
PC-3 prostate = tested on: PC-3 prostate
RXF 393 renal = tested on: RXF 393 renal
SF-268 CNS = tested on: SF-268 CNS
SF-295 CNS = tested on: SF-295 CNS
SF-539 CNS = tested on: SF-539 CNS
SK-MEL-2 melanoma = tested on: SK-MEL-2 melanoma
SK-MEL-28 melanoma = tested on: SK-MEL-28 melanoma
SK-MEL-5 melanoma = tested on: SK-MEL-5 melanoma
SK-OV-3 ovarian = tested on: SK-OV-3 ovarian
SN12C renal = tested on: SN12C renal
SNB-19 CNS = tested on: SNB-19 CNS
SNB-75 CNS = tested on: SNB-75 CNS
SW-620 colon = tested on: SW-620 colon
T-47D breast = tested on: T-47D breast
TK-10 renal = tested on: TK-10 renal
U251 CNS = tested on: U251 CNS
UACC-257 melanoma = tested on: UACC-257 melanoma
UACC-62 melanoma = tested on: UACC-62 melanoma
UO-31 renal = tested on: UO-31 renal

Compound: COc1cc2c3c(n(CCCCNC(=O)OCC4c5ccccc5-c5ccccc54)c(=O)c2cc1OC)-c1cc2c(cc1C3=O)OCO2
- GI50 (786-0 renal): 4.67 µM
- TGI (786-0 renal): 28.1 µM
- GI50 (A498 renal): > 100 µM
- TGI (A498 renal): > 100 µM
- GI50 (A549 NSCLC): 17.4 µM
- TGI (A549 NSCLC): > 100 µM
- GI50 (ACHN renal): 5.8 µM
- TGI (ACHN renal): 50.4 µM
- GI50 (BT-549 breast): 79.1 µM
- TGI (BT-549 breast): > 100 µM
- GI50 (CAKI-1 renal): 5.3 µM
- TGI (CAKI-1 renal): > 100 µM
- GI50 (CCRF-CEM leukemia): 2.75 µM
- TGI (CCRF-CEM leukemia): > 100 µM
- GI50 (COLO 205 colon): 49.9 µM
- TGI (COLO 205 colon): > 100 µM
- GI50 (DU-145 prostate): 8.04 µM
- TGI (DU-145 prostate): > 100 µM
- GI50 (EKVX NSCLC): 87.2 µM
- TGI (EKVX NSCLC): > 100 µM
- GI50 (HCC-2998 colon): 14.9 µM
- TGI (HCC-2998 colon): > 100 µM
- GI50 (HCT-116 colon): 7.73 µM
- TGI (HCT-116 colon): 33.6 µM
- GI50 (HCT-15 colon): 12.9 µM
- TGI (HCT-15 colon): 80.3 µM
- GI50 (HOP-62 NSCLC): 5.62 µM
- TGI (HOP-62 NSCLC): 34 µM
- GI50 (HOP-92 NSCLC): 1.49 µM
- TGI (HOP-92 NSCLC): 9.69 µM
- GI50 (HS 578T breast): 80.7 µM
- TGI (HS 578T breast): > 100 µM
- GI50 (HT29 colon): 16.9 µM
- TGI (HT29 colon): > 100 µM
- GI50 (IGROV1 ovarian): 17.9 µM
- TGI (IGROV1 ovarian): > 100 µM
- GI50 (K-562 leukemia): 3.05 µM
- TGI (K-562 leukemia): 27.4 µM
- GI50 (KM12 colon): 22 µM
- TGI (KM12 colon): > 100 µM
- GI50 (LOX IMVI melanoma): 7.08 µM
- TGI (LOX IMVI melanoma): > 100 µM
- GI50 (M14 melanoma): 25.9 µM
- TGI (M14 melanoma): > 100 µM
- GI50 (MALME-3M melanoma): > 100 µM
- TGI (MALME-3M melanoma): > 100 µM
- GI50 (MCF7 breast): 0.554 µM
- TGI (MCF7 breast): 16.2 µM
- GI50 (MDA-MB-231 breast): 26.5 µM
- TGI (MDA-MB-231 breast): > 100 µM
- GI50 (MDA-MB-435): 64.9 µM
- TGI (MDA-MB-435): > 100 µM
- GI50 (MOLT-4 leukemia): 0.281 µM
- TGI (MOLT-4 leukemia): 1.81 µM
- GI50 (NCI-H226 lung): 31.1 µM
- TGI (NCI-H226 lung): > 100 µM
- GI50 (NCI-H23 lung): 26.4 µM
- TGI (NCI-H23 lung): > 100 µM
- GI50 (NCI-H460 lung): 2.56 µM
- TGI (NCI-H460 lung): 54.2 µM
- GI50 (NCI-H522 lung): 11.1 µM
- TGI (NCI-H522 lung): > 100 µM
- GI50 (NCI/ADR-RES ovarian): 58.1 µM
- TGI (NCI/ADR-RES ovarian): > 100 µM
- GI50 (OVCAR-3 ovarian): 19.8 µM
- TGI (OVCAR-3 ovarian): 62.5 µM
- GI50 (OVCAR-4 ovarian): > 100 µM
- TGI (OVCAR-4 ovarian): > 100 µM
- GI50 (OVCAR-5 ovarian): 17.4 µM
- TGI (OVCAR-5 ovarian): 51 µM
- GI50 (OVCAR-8 ovarian): 35 µM
- TGI (OVCAR-8 ovarian): > 100 µM
- GI50 (PC-3 prostate): 13.7 µM
- TGI (PC-3 prostate): 55.6 µM
- GI50 (RXF 393 renal): 15.9 µM
- TGI (RXF 393 renal): 58.6 µM
- GI50 (SF-268 CNS): 6.7 µM
- TGI (SF-268 CNS): > 100 µM
- GI50 (SF-295 CNS): > 100 µM
- TGI (SF-295 CNS): > 100 µM
- GI50 (SF-539 CNS): 6.42 µM
- TGI (SF-539 CNS): 37.6 µM
- GI50 (SK-MEL-2 melanoma): 70.4 µM
- TGI (SK-MEL-2 melanoma): > 100 µM
- GI50 (SK-MEL-28 melanoma): > 100 µM
- TGI (SK-MEL-28 melanoma): > 100 µM
- GI50 (SK-MEL-5 melanoma): 23.4 µM
- TGI (SK-MEL-5 melanoma): > 100 µM
- GI50 (SK-OV-3 ovarian): > 100 µM
- TGI (SK-OV-3 ovarian): > 100 µM
- GI50 (SN12C renal): 10.7 µM
- TGI (SN12C renal): 93 µM
- GI50 (SNB-19 CNS): 81.6 µM
- TGI (SNB-19 CNS): > 100 µM
- GI50 (SNB-75 CNS): 28.9 µM
- TGI (SNB-75 CNS): > 100 µM
- GI50 (SW-620 colon): 7.75 µM
- TGI (SW-620 colon): > 100 µM
- GI50 (T-47D breast): 95.8 µM
- TGI (T-47D breast): > 100 µM
- GI50 (TK-10 renal): 56.3 µM
- TGI (TK-10 renal): > 100 µM
- GI50 (U251 CNS): 11.2 µM
- TGI (U251 CNS): 65.3 µM
- GI50 (UACC-257 melanoma): > 100 µM
- TGI (UACC-257 melanoma): > 100 µM
- GI50 (UACC-62 melanoma): 45.7 µM
- TGI (UACC-62 melanoma): > 100 µM
- GI50 (UO-31 renal): 49.3 µM
- TGI (UO-31 renal): > 100 µM
